Reference: ChEMBL document CHEMBL1143522, “Antimalarial benzo[c]phenanthridines” (Bioorg Med Chem Lett, 2005)

Experiments:
Plasmodium falciparum [1] = test: In vitro inhibitory concentration against chloroquine-sensitive Plasmodium falciparum K39; type: functional, organism-based
Plasmodium falciparum [2] = test: In vitro inhibitory concentration against chloroquine-resistant Plasmodium falciparum V1/S; type: functional, organism-based
Plasmodium falciparum [3] = test: […] against Plasmodium falciparum strains K39 and V1/S; type: functional
Plasmodium falciparum [4] = test: In vitro inhibition against chloroquine-sensitive Plasmodium falciparum K39; Range 0.1-0.4 uM; type: functional, organism-based
Plasmodium falciparum [5] = test: In vitro inhibition against chloroquine-resistant Plasmodium falciparum V1/S; Range 0.1-0.4 uM; type: functional, organism-based
[6] = In vitro toxicity against B82 fibroblast cells; type: cell-based; conditions: mouse, read-out: LD50 (the source's name)

| SMILES | IC50 (Plasmodium falciparum [1]) [nM] | IC50 (Plasmodium falciparum [2]) [nM] | Ratio (Plasmodium falciparum [3]) | IC50 (Plasmodium falciparum [4]) [nM] | IC50 (Plasmodium falciparum [5]) [nM] | CC50 [6] [µg/mL] |
| --- | --- | --- | --- | --- | --- | --- |
| COc1cc2c[n+](C)c3c4cc(OC)c(OC)cc4ccc3c2cc1OC.CS(=O)(=O)[O-] | 70 | 300 | 4.2 |  |  |  |
| COc1cc2c[n+](C)c3c4cc(OC)c(OC)cc4c(OCC4OCC(Br)([N+](=O)[O-])CO4)cc3c2cc1OC.CS(=O)(=O)[O-] (stereo not drawn) | 1000 | 1840 | 1.9 |  |  |  |
| COc1cc2c(ccc3c4cc(OC)c(OC)cc4c[n+](C)c23)cc1O.CS(=O)(=O)[O-] | 2300 | 1800 | 0.8 |  |  |  |
| COc1cc2c[n+](C)c3c4cc5c(cc4ccc3c2cc1OC)OCO5 [NITIDINE CHLORIDE] |  |  |  | 400 | 400 |  |
| CCOc1cc2c3cc(OC)c(OC)cc3c[n+](C)c2c2cc(OC)c(OC)cc12.CS(=O)(=O)[O-] | 260 | 260 | 1 |  |  |  |
| COc1cc2c[n+](C)c3c4cc(OC)c(OC)cc4c4occc4c3c2cc1OC.CS(=O)(=O)[O-] | 9 | 110 | 11.3 |  |  |  |
| COc1cc2ccc3c4cc(OC)c(SC)cc4c[n+](C)c3c2cc1OC.CS(=O)(=O)[O-] | 190 | 900 | 4.7 |  |  |  |
| CC[n+]1cc2cc(OC)c(OC)cc2c2ccc3cc(OC)c(OC)cc3c21.[I-] | 90 | 120 | 1.3 |  |  |  |
| CCOc1cc2c3cc(OC)c(OC)cc3c[n+](CC)c2c2cc(OC)c(OC)cc12.[I-] | 40 | 50 | 1.4 |  |  | 3.2 |
| CCOc1cc2c3cc(OC)c(OC)cc3c[n+](C)c2c2cc(OC)c(O)cc12.CS(=O)(=O)[O-] | 120 | 120 | 1 |  |  |  |
| CCOc1cc2ccc3c4cc(OC)c(OC)cc4c[n+](C)c3c2cc1OC.CS(=O)(=O)[O-] | 800 | 740 | 0.9 |  |  |  |
